Reference: patent EP0193189A1, “Novel compound, its production and insecticidal and acaricidal composition containing it as an active ingredient” (SUMITOMO CHEMICAL COMPANY, LIMITED, priority 1985, dated 1986)
In brackets after ≈: the same amount, converted by molar mass. Like-named read-outs stand apart in the source and are kept apart here.

Columns and labels:
[1] = Test Example 9: fish toxicity test; format: in vivo, Cyprinida carpio; conditions: water; young carp; forty-eight hours; 25 ± 1°C; Probit method; read-out: LC50 value (ppm)
Description: Twenty liters of each of the aqueous solutions containing the prescribed concentrations of the present compounds and comparative control one, and 10 young carp were liberated thereto. Forty-eight hours after, the dead and alive carp were examined to obtain LC50 value, (50% lethal concentration) according to Probit method. All the tests were carried out in thermostatic aquaria whose temperatures were kept at 25 ± 1°C.
Tested fish: young Japanese carp (Cyprinida carpio) Average body length ± S.D.: 2.94 ± 0.19 cm. Average.body weight ± S.D.: 0.65 ± 0.13 g.

[2] = system: brown rice planthoppers (Nila^parvata luqens); assay: Test Example 7: spray on potted rice plants, brown rice planthopper, residual effect; format: in vivo; conditions: 20 h
Description: The emulsifiable concentrates of the following compounds and control compounds obtained according to Formulation example 2 were each diluted with water one thousand times (corresponding to 100 ppm) and each of thus prepared solutions was sprayed at the rate of 20 ml/2 pots to the rice plant seedlings planted in Wagner pots having a surface area of one ten thousandth are. After air-drying, the treated plants were covered with the iron wire cages, and about 15 adults of brown rice planthoppers (Nila^parvata luqens) were liberated thereto. Further, about 15 adults thereof were also liberated thereto 4 days after the application to examine the residual effects. Twenty hours after each liberation, the dead and alive adults were examined to calculate the mortality.

[3] = system: tobacco cutworms (Spodoptera litura); assay: Test Example 2: tobacco cutworm larvae on treated artificial feed; format: in vivo; conditions: Spodoptera litura, 144 h
Description: The emulsifiable concentrates of the following present compounds obtained according to Formulation example 2 were each diluted with water to obtain respective 667 times dilution aqueous solutions (corresponding to 150 ppm) containing said compounds, respectively. Two ml of thus diluted solutions were impregnated into the artificial feeds (13 g) for tobacco cutworms (Spodoptera litura) and thus prepared feeds were placed in polyethylene cups of 11 cm in diameter, respectively. Ten of the 4th instar larvae were liberated thereon.
Six days after, the dead and alive of the larvae were examined to calculate the mortality (two replications).

[4] = system: rice stem borer (Chilo suppressalis); assay: Test Example 5: rice stem borer larvae on treated artificial feed; format: in vivo; conditions: read-out: LC50 value (ppm)
Description: The emulsifiable concentrates of the following present compounds and control compounds obtained according to Formulation example 2 were each diluted with water to a prescribed concentration, and one ml each of thus prepared solutions was impregnated into the artificial feeds for rice stem borer (Chilo suppressalis) which had been previously prepared in polyethylene cups of 5.5 cm in diameter, respectively. Ten of the larvae of the 10 days old were liberated thereon. The dead and alive larvae were examined to obtain LC50 value (50% lethal concentration) (two replications).

[5] = system: brown rice planthopper (Nila^parvata luqens); assay: Test Example 4: rice seedling dip test, brown rice planthopper; format: in vivo; conditions: 24 h, read-out: LC50 value (ppm)
Description: The emulsifiable concentrates of the-following present compounds and control compounds obtained according to Formulation example 2 were each diluted with water to a prescribed concentration, and the rice seedlings (about 12 cm in length) were dipped for 1 minute in the resulting aqueous dilute solutions. After air-drying, the seedlings were placed in a test tube, and 10 adults of brown rice planthopper (Nila^parvata luqens) were liberated in the tube. After one day, the dead and alive of the adults were examined to obtain LC50 value (50% lethal concentration)(two replications).

[6] = system: resistant strain of green rice leafhopper (Nephotetix cincticeps); assay: Test Example 3: rice seedling dip test, resistant green rice leafhopper; format: in vivo; conditions: Nephotettix cincticeps, 24 h, adults of resistant strain, after one day
Description: The emulsifiable concentrates of the following present compounds and control compounds obtained according to Formulation example 2 were each diluted with water to a prescribed concentration, and rice seedlings (about 12 cm in length) were dipped for 1 minute in the resulting aqueous dilute solutions. After air-drying, the seedlings were placed in test tube, and 10 adults of a resistant strain of green rice leafhopper (Nephotetix cincticeps) were liberated in the tube. After one day, the dead and alive of the adults were examined to obtain LC50 (50% lethal concentration)(two replications).

[7] = system: carmine spider mite (Tetranychus cinnabarinus); assay: Test Example 8: carmine spider mite on potted kidney bean, degree of damage; format: in vivo; design: key: -: No damage is observed.; +: Slight damage is observed.; ++: The same damage as in the untreated plot is observed; conditions: 500 ppm spray 10 ml/pot plus 2 ml soil treatment; after 8 days
Description: The female adults of carmine spider mite (Tetranychus cinnabarinus) were put at a rate of 10 adults/leaf on the leaves of potted kidney bean (at the primordial leaf stage) which had elapsed 7 days after sowing, and placed in a constant-temperature room kept at 25°C. After 6 days, the 200-fold aqueous dilute solutions (corresponding to 500 ppm), prepared from the emulsifiable concentrates of the following present compounds and control compounds prepared according to Formulation example 2, were each sprayed at a rate of 10 ml/pot on a turn table. At the same time, the soil in the pot was treated with 2 ml of each aqueous solution. After 8 days, the degree of damage of the plant by the mite was examined.
Criteria of the effect: • - : No damage is observed. • + : Slight damage is observed. • ++: The same damage as in the untreated plot is observed.

[8] = system: common mosquito (Culex pipiens pallens); assay: Test Example 1: common mosquito larvae in diluted emulsifiable concentrate, mortality and emergence inhibition; format: in vivo; conditions: Culex pipiens; for mortality at 3.5 ppm: 24 h; for pest or weed control at 3.5 ppm: counted when all pupae of no treatment group had emerged, read-out: Inhibitory ratio of emergence
Description: The emulsifiable concentrates of the following present compounds obtained according to Formulation example 2 were each diluted with water so as to obtain respective aqueous solutions containing 3.5 ppm of said compounds, respectively. One hundred ml of thus diluted aqueous solutions were poured into respective polyethylene cups of 180 ml volume, and 20 of the last instar larvae of common mosquito (Culex pipiens pallens) were liberated thereto. After one day, the dead or alive of the larvae were examined.
Thereafter, the feed was added to respective cups and the number of emerged pupae of the respective cups was counted when all the pupae of no treatment group had emerged to calculate the inhibitory ratios of the emergence.
The mortality and the inhibitory ratio of the emergence are shown according to the following three criteria: • mortality: A; 90% or more, • B; less than 90% to 10%, • C; less than 10%. • inhibitory: A; 90% or more, ratio of • emergence B; less than 90% to 80% • C; less than 80%.

[9] = system: houseflies (Musca domestica) of WHO strains; assay: Test Example 6: housefly filter paper and sucrose bait test; format: in vivo; conditions: 0.7 ml on filter paper with sucrose bait, adult females, after 48 hours, read-out: LC50 value (ppm)
Description: On the bottom of a polyethylene cup of 5.5 cm- in diameter was placed a piece of filter paper of the same size as the bottom, and 0.7 ml of a test solution, prepared by diluting the emulsifiable concentrates of the following present compounds and control compounds prepared according to Formulation example 2 to a prescribed concentration with water, was added dropwise to the filter paper. Thirty milligrams of sucrose were uniformly placed on the filter paper as bait. Thereafter, 10 adult female houseflies (Musca domestica) of WHO strains were liberated in the cup, which was then covered with a lid. After 48 hours, the dead and alive were examined to obtain LC50 value (50% lethal concentration) (two replications).

[10] = read-out: LC50 value (ppm), rice seedlings dipped 1 minute
[11] = 100 ppm spray, 20 ml/2 pots, residual effect, twenty hours after liberation, read-out: Mortality (%) liberated 4 days after application
[12] = 100 ppm spray, 20 ml/2 pots, twenty hours after liberation, read-out: Mortality (%) liberated just after air-drying
[13] = 150 ppm solution, 2 ml in 13 g artificial feed, 4th instar larvae, six days after, read-out: Mortality (%)
[14] = 1 ml solution in artificial feed, larvae 10 days old
[15] = rice seedlings dipped 1 minute, adults, after one day
[16] = rice seedlings dipped 1 minute, read-out: LC50 value (ppm)
[17] = 3.5 ppm, 20 last instar larvae, after one day, read-out: Mortality

| SMILES | LC50 at 48 h [1] [µg/mL] | Degree of damage [7] | pest or weed control at 3.5 ppm ([8]; 3.5 ppm) [%] | mortality at 150 ppm [3, 13] [%] | LC50 [4, 14] [µg/mL] | LC50 [9] [µg/mL] | LC50 [5, 15] [µg/mL] | LC50 [6, 16] [µg/mL] | mortality at 3.5 ppm [8, 17] [%] | also measured |
| --- | --- | --- | --- | --- | --- | --- | --- | --- | --- | --- |
| C#CC(C)(CCCc1cccc(Oc2ccccc2)c1)c1ccc(OCC)cc1 (centres unmarked) [(3), 3-(4-ethoxyphenyl)-3-methyl-6-(3-phenoxyphenyl)-1-hexyne] | > 10 | - | > 90 |  |  |  |  |  |  | mortality at 100 ppm ([2]; read-out: Mortality (%) liberated 4 days after application): 95%; mortality at 100 ppm ([2]; read-out: Mortality (%) liberated just after air-drying): 100%; mortality at 150 ppm [3]: 100%; LC50 [4]: 3.6 µg/mL (≈ 9.36 µM); LC50 [5]: 34 µg/mL (≈ 88.4 µM); LC50 [6, 10]: 18 µg/mL (≈ 46.8 µM); mortality at 3.5 ppm [8]: > 90% |
| C#CC(C)(CCCc1ccc(F)c(Oc2ccccc2)c1)c1ccc(OCC)cc1 (centres unmarked) [(4)] | > 10 |  | > 90 | 100 | 1.9 (≈ 4.72 µM) | 18 (≈ 44.7 µM) | 24 (≈ 59.6 µM) | 10 (≈ 24.8 µM) | > 90 | mortality at 100 ppm [2, 11]: 100%; mortality at 100 ppm [2, 12]: 100% |
| C#CC(C)(CCCc1ccc(F)c(Oc2ccccc2)c1)c1ccc(OC(F)F)cc1 (centres unmarked) [(6)] |  |  | > 90 | 100 | 1.9 (≈ 4.48 µM) | 15 (≈ 35.3 µM) |  | 36 (≈ 84.8 µM) | > 90 |  |
| C#CC(C)(CCCc1ccc(F)c(Oc2ccccc2)c1)c1ccc(OCC)c(Cl)c1 (centres unmarked) [(11)] |  |  | > 90 | 100 | 2.3 (≈ 5.26 µM) | 12 (≈ 27.5 µM) |  | 49 (≈ 112 µM) | > 90 |  |
| C#CC(C)(CCCc1cccc(Oc2ccccc2)c1)c1ccc(OC(F)F)cc1 (stereo not drawn) [(17), 3-(4-difluoromethoxyphenyl)-3-methyl-6-(3-phenoxyphenyl)-l-hexyne] |  |  | > 90 | 100 | 3.6 (≈ 8.86 µM) |  |  | 68 (≈ 167 µM) | > 90 |  |
| C#CC(C)(CCCc1ccc(F)c(Oc2ccccc2)n1)c1ccc(OCC)cc1 (centres unmarked) [(20)] |  | - ~ + | > 90 | 100 |  |  | 25 (≈ 62 µM) | 74 (≈ 183 µM) | > 90 |  |
| C#CC(C)(CCCc1ccc(F)c(Nc2ccccc2)c1)c1ccc(OCC)cc1 (centres unmarked) [(21)] |  |  | > 90 | 100 | 1.5 (≈ 3.74 µM) |  | 15 (≈ 37.4 µM) | 24 (≈ 59.8 µM) | > 90 |  |
| C#CC(C)(CCCc1ccc(F)c(Oc2ccc(Cl)cc2)c1)c1ccc(OCC)cc1 (centres unmarked) [(34)] |  |  | > 90 | 100 | 4.2 (≈ 9.61 µM) |  |  | 18 (≈ 41.2 µM) | > 90 |  |
| CCOc1ccc(C(C)(C)COCc2cccc(Oc3ccccc3)c2)cc1 [(B), reference compound] |  | - ~ ++ |  |  | 7.4 (≈ 19.7 µM) | 28 (≈ 74.4 µM) | 110 (≈ 292 µM) |  |  | mortality at 100 ppm [2, 11]: 65%; mortality at 100 ppm [2, 12]: 10% |
| CCOC(=O)CC(SP(=S)(OC)OC)C(=O)OCC (centres unmarked) [(D), Malathion, reference compound] | 4.5 (≈ 13.6 µM) |  |  |  |  |  |  |  |  | LC50 [6, 10]: ~500 µg/mL (≈ 1510 µM) |
